Experimental data published in PubChem BioAssay AID1259407 (Chemical Carcinogenesis Research Information System (CCRIS), 2018).
The source made the active and inactive calls. No rule for the calls is given here.

Test system: CCRIS mutagenicity, Ames/micronucleus/aberration tests
Assay: CCRIS mutagenicity studies
[1] = Test System: AMES SALMONELLA TYPHIMURIUM, Strain/Indicator: TA98, Metabolic Activation: NONE, Method: STANDARD PLATE
[2] = Test System: AMES SALMONELLA TYPHIMURIUM, Strain/Indicator: TA100, Metabolic Activation: NONE, Method: STANDARD PLATE
[3] = Test System: AMES SALMONELLA TYPHIMURIUM, Strain/Indicator: TA1535, Metabolic Activation: NONE, Method: STANDARD PLATE
[4] = Test System: AMES SALMONELLA TYPHIMURIUM, Strain/Indicator: TA1537, Metabolic Activation: NONE, Method: STANDARD PLATE
[5] = Test System: AMES SALMONELLA TYPHIMURIUM, Strain/Indicator: TA1538, Metabolic Activation: NONE, Method: STANDARD PLATE
[6] = Test System: AMES SALMONELLA TYPHIMURIUM, Strain/Indicator: TA100, Metabolic Activation: RAT, LIVER, S-9, AROCLOR 1254, Method: STANDARD PLATE

In the case of `CN(C)CCCNc1c2ccccc2nc2c([N+](=O)[O-])cccc12`, the mutagenic call (Test System: AMES SALMONELLA TYPHIMURIUM, Strain/Indicator: TA98(1,8-DNP6), Metabolic Activation: NONE, Method: STANDARD PLATE) is reported as “active; positive”, the mutagenic call (Test System: AMES SALMONELLA TYPHIMURIUM, Strain/Indicator: TA98(1,8-DNP6), Metabolic Activation: RAT, LIVER, S-9, Method: STANDARD PLATE) is reported as “active; positive” and the mutagenic call (Test System: AMES SALMONELLA TYPHIMURIUM, Strain/Indicator: TA98(NR), Metabolic Activation: NONE, Method: STANDARD PLATE) is reported as “active; positive”. For the same molecule, the mutagenic call (Test System: AMES SALMONELLA TYPHIMURIUM, Strain/Indicator: TA98(NR), Metabolic Activation: RAT, LIVER, S-9, Method: STANDARD PLATE) was “active; positive”, the mutagenic call [1] was “active; positive” and the mutagenic call (Test System: AMES SALMONELLA TYPHIMURIUM, Strain/Indicator: TA98, Metabolic Activation: RAT, LIVER, S-9, Method: STANDARD PLATE) was “active; positive”. The mutagenic call [2] was “active; positive”, the mutagenic call [3] was “inactive; negative” and the mutagenic call [4] was “active; positive”. The mutagenic call (Test System: AMES SALMONELLA TYPHIMURIUM, Strain/Indicator: TA1537 PKM101, Metabolic Activation: NONE, Method: STANDARD PLATE) was “active; positive”, the mutagenic call [5] was “active; positive” and the mutagenic call (Test System: CHINESE HAMSTER V-79, Strain/Indicator: V-79/6-THIOGUANINE, Metabolic Activation: NONE, Method: STANDARD PLATE) was “active; positive”. For the same molecule, the mutagenic call (Test System: CHINESE HAMSTER V-79, Strain/Indicator: V-79/OUABAIN, Metabolic Activation: NONE, Method: STANDARD PLATE) was “inactive; negative”, the mutagenic call (Test System: Escherichia coli, Strain/Indicator: CC107 (G6 to G7 frameshifts), Metabolic Activation: None, Method: Modified preincubation) was “active; positive” and the mutagenic call (Test System: Escherichia coli, Strain/Indicator: CC108 (G6 to G5 frameshifts), Metabolic Activation: None, Method: Modified preincubation) was “active; positive”. For the same molecule, the mutagenic call (Test System: Escherichia coli, Strain/Indicator: CC109 (CG5 to CG4 frameshifts), Metabolic Activation: None, Method: Modified preincubation) was “inactive; negative, investigators report as positive based on revertant frequency correcte” and the mutagenic call (Test System: Escherichia coli, Strain/Indicator: CC111 (A7 to A6 frameshifts), Metabolic Activation: None, Method: Modified preincubation) was “inactive; negative”.
With `CC(C)(C)c1ccc(C(=O)O)cc1` the mutagenic call (Test System: Ames Salmonella typhimurium, Strain/Indicator: TA98, Metabolic Activation: None, Method: Preincubation) was “inactive; negative”, the mutagenic call (Test System: Ames Salmonella typhimurium, Strain/Indicator: TA98, Metabolic Activation: Rat, Liver, S9, Sodium phenobarbital and 5,6-benzoflavone (10%), Method: Preincubation) was “inactive; negative” and the mutagenic call (Test System: Ames Salmonella typhimurium, Strain/Indicator: TA100, Metabolic Activation: None, Method: Preincubation) was “inactive; negative”. For the same molecule, the mutagenic call (Test System: Ames Salmonella typhimurium, Strain/Indicator: TA100, Metabolic Activation: Rat, Liver, S9, Sodium phenobarbital and 5,6-benzoflavone (10%), Method: Preincubation) was “inactive; negative”, the mutagenic call (Test System: Ames Salmonella typhimurium, Strain/Indicator: TA1535, Metabolic Activation: None, Method: Preincubation) was “inactive; negative” and the mutagenic call (Test System: Ames Salmonella typhimurium, Strain/Indicator: TA1535, Metabolic Activation: Rat, Liver, S9, Sodium phenobarbital and 5,6-benzoflavone (10%), Method: Preincubation) was “inactive; negative”. For the same molecule, the mutagenic call (Test System: Ames Salmonella typhimurium, Strain/Indicator: TA1537, Metabolic Activation: None, Method: Preincubation) was “inactive; negative”, the mutagenic call (Test System: Ames Salmonella typhimurium, Strain/Indicator: TA1537, Metabolic Activation: Rat, Liver, S9, Sodium phenobarbital and 5,6-benzoflavone (10%), Method: Preincubation) was “inactive; negative” and the mutagenic call (Test System: E. coli, Strain/Indicator: WP2uvrA/pKM101, Metabolic Activation: None, Method: Preincubation) was “inactive; negative”. The mutagenic call (Test System: E. coli, Strain/Indicator: WP2uvrA/pKM101, Metabolic Activation: Rat, Liver, S9, Sodium phenobarbital and 5,6-benzoflavone (10%), Method: Preincubation) was “inactive; negative”.
With `O=c1c(O)c(-c2ccc(O)c(O)c2)oc2cc(O)ccc12` the mutagenic call (End Point: IN VITRO CHROMOSOMAL ABERRATIONS, Test System: HUMAN HL60 CELLS, Metabolic Activation: NONE) was “active; positive (structural changes)”, the mutagenic call (End Point: IN VITRO CHROMOSOMAL ABERRATIONS, Test System: HUMAN TK6 CELLS, Metabolic Activation: NONE) was “active; positive (structural changes)” and the mutagenic call (End Point: IN VITRO MICRONUCLEUS, Test System: HUMAN HL60 CELLS, Metabolic Activation: NONE) was “active; positive”. The mutagenic call (End Point: IN VITRO MICRONUCLEUS, Test System: HUMAN TK6 CELLS, Metabolic Activation: NONE) was “active; positive”, the mutagenic call (Test System: Ames Salmonella typhimurium, Strain/Indicator: TA102, Metabolic Activation: None, Method: Preincubation) was “inactive; negative” and the mutagenic call (Test System: Ames Salmonella typhimurium, Strain/Indicator: TA102, Metabolic Activation: Rat, Liver, S-9, Aroclor 1254 in 0.154 M KCl, Method: Preincubation) was “inactive; negative”.
For `C=C(C#N)C(=O)OCC`, the mutagenic call [2] was “inactive; negative” and the mutagenic call [6] was “inactive; negative”.
For `CCCCOC(=O)CC(CC(=O)OCCCC)(OC(C)=O)C(=O)OCCCC`, the mutagenic call (Test System: AMES SALMONELLA TYPHIMURIUM, Strain/Indicator: TA98, Metabolic Activation: HAMSTER, LIVER, S-9, AROCLOR 1254, Method: STANDARD PLATE) was “inactive; negative”, the mutagenic call [1] was “inactive; negative” and the mutagenic call (Test System: AMES SALMONELLA TYPHIMURIUM, Strain/Indicator: TA98, Metabolic Activation: RAT, LIVER, S-9, AROCLOR 1254, Method: STANDARD PLATE) was “inactive; negative”. The mutagenic call (Test System: AMES SALMONELLA TYPHIMURIUM, Strain/Indicator: TA100, Metabolic Activation: HAMSTER, LIVER, S-9, AROCLOR 1254, Method: STANDARD PLATE) was “inactive; negative”, the mutagenic call [2] was “inactive; negative” and the mutagenic call [6] was “inactive; negative”. For the same molecule, the mutagenic call (Test System: AMES SALMONELLA TYPHIMURIUM, Strain/Indicator: TA1535, Metabolic Activation: HAMSTER, LIVER, S-9, AROCLOR 1254, Method: STANDARD PLATE) was “inactive; negative”, the mutagenic call [3] was “inactive; negative” and the mutagenic call (Test System: AMES SALMONELLA TYPHIMURIUM, Strain/Indicator: TA1535, Metabolic Activation: RAT, LIVER, S-9, AROCLOR 1254, Method: STANDARD PLATE) was “inactive; negative”. The mutagenic call (Test System: AMES SALMONELLA TYPHIMURIUM, Strain/Indicator: TA1537, Metabolic Activation: HAMSTER, LIVER, S-9, AROCLOR 1254, Method: STANDARD PLATE) was “inactive; negative”, the mutagenic call [4] was “inactive; negative” and the mutagenic call (Test System: AMES SALMONELLA TYPHIMURIUM, Strain/Indicator: TA1537, Metabolic Activation: RAT, LIVER, S-9, AROCLOR 1254, Method: STANDARD PLATE) was “inactive; negative”. For the same molecule, the mutagenic call (Test System: AMES SALMONELLA TYPHIMURIUM, Strain/Indicator: TA1538, Metabolic Activation: HAMSTER, LIVER, S-9, AROCLOR 1254, Method: STANDARD PLATE) was “inactive; negative”, the mutagenic call [5] was “inactive; negative” and the mutagenic call (Test System: AMES SALMONELLA TYPHIMURIUM, Strain/Indicator: TA1538, Metabolic Activation: RAT, LIVER, S-9, AROCLOR 1254, Method: STANDARD PLATE) was “inactive; negative”. The mutagenic call (Test System: MOUSE LYMPHOMA, Strain/Indicator: L5178Y (TK+/TK-), Metabolic Activation: NONE, Method: SUSPENSION/PLATE) was “inactive; negative. reevaluation of results: inconclusive” and the mutagenic call (Test System: MOUSE LYMPHOMA, Strain/Indicator: L5178Y (TK+/TK-), Metabolic Activation: RAT, LIVER, S-9, AROCLOR 1254, Method: SUSPENSION/PLATE) was “inactive; negative. reevaluation of results: negative”.
